These compounds were tested against T1, human TGR5 (Homo sapiens, UniProt Q8TDU6) (assay: Cell-based TGR5 assay (cAMP generation, HTRF)). Details: HEK293 cells stably transfected with human TGR5; cAMP by HTRF; 30 minutes at 37° C.; read-out: pEC50 Human TGR5 (converted).
T1 construct: expressed in transfected cells; host or cells: HEK293
T1 sequence (Q8TDU6 1-330): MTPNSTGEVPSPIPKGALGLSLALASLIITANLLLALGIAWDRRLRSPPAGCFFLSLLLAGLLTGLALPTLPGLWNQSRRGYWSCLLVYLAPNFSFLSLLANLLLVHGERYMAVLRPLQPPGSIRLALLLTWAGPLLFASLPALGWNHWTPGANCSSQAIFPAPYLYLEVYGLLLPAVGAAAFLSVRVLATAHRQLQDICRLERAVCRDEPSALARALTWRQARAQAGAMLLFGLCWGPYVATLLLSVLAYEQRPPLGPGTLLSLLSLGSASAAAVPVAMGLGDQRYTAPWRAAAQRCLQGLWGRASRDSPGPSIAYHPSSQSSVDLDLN
Summary of the method: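 Read-out was HTRF detection of cAMP, converted to concentration via a standard curve and fitted (3-parameter logistic) for pEC50 and maximal response. Agonist stimulation used HEK293 cells stably transfected with human TGR5, incubated 30 min at 37° C in IBMX-containing buffer at 0.05 nM to 10 μM compound.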
With `CC(CCCC(=O)N1CCN(C(=O)NC[C@H](O)[C@@H](O)[C@H](O)[C@H](O)CO)CC1)c1ccc(Cl)c(CNC2(c3cnccc3-c3ccccc3OC3CC3)CC2)c1` (stereo partly drawn) [Compound I-319, 4-(5-{4-chloro-3-[({1-[4-(2-cyclopropoxyphenyl)pyridin-3-yl]cyclopropyl}amino)methyl]phenyl}hexanoyl)-N-[(2S,3R,4R,5R)-2,3,4,5,6-pentahydroxyhexyl]piperazine-1-carboxamide] the EC50 was under 100 nM.
For `O=C([C@@H](O)[C@@H](O)[C@H](O)[C@@H](O)CO)N(CCCCSc1ccc(Cl)c(CNC2(c3cnccc3-c3ccccc3OC3CC3)CC2)c1)C1CCOCC1` [Compound I-535, (2S,3S,4R,5S)-N-[4-({4-chloro-3-[({1-[4-(2-cyclopropoxyphenyl)pyridin-3-yl]cyclopropyl}amino)methyl]phenyl}sulfanyl)butyl]-2,3,4,5,6-pentahydroxy-N-(oxan-4-yl)hexanamide], the EC50 was 126 to 1000 nM.
With `CCN(C[C@H](O)[C@@H](O)[C@H](O)[C@H](O)CO)C(=O)CCCC(C)c1ccc(C)c(COC2(c3cnccc3-c3ccccc3OC3CC3)CC2)c1` (stereo partly drawn) [Compound I-375, 5-[3-({1-[4-(2-cyclopropoxyphenyl)pyridin-3-yl]cyclopropoxy}methyl)-4-methylphenyl]-N-ethyl-N-[(2S,3R,4R,5R)-2,3,4,5,6-pentahydroxyhexyl]hexanamide] the EC50 was under 100 nM.
Work on `Cc1cc(COC2(c3cnccc3-c3ccccc3OC3CC3)CC2)c(Cl)cc1CCCCNC(=O)N(CCO)C[C@H](O)[C@@H](O)[C@H](O)[C@H](O)CO` [Compound I-107, 1-{4-[5-chloro-4-({1-[4-(2-cyclopropoxyphenyl)pyridin-3-yl]cyclopropoxy}methyl)-2-methylphenyl]butyl}-3-(2-hydroxyethyl)-3-[(2S,3R,4R,5R)-2,3,4,5,6-pentahydroxyhexyl]urea] yielded an EC50 of under 100 nM.
`Cc1ccc(C(CO)CCCNC(=O)[C@@H](O)[C@@H](O)[C@H](O)[C@@H](O)CO)cc1CNC1(c2cnccc2-c2ccccc2OC2CC2)CC1` (stereo partly drawn) [Compound I-386, (2S,3S,4R,5S)-N-(4-{3-[({1-[4-(2-cyclopropoxyphenyl)pyridin-3-yl]cyclopropyl}amino)methyl]-4-methylphenyl}-5-hydroxypentyl)-2,3,4,5,6-pentahydroxyhexanamide] gave an EC50 of under 100 nM.
For `O=C(CCS(=O)(=O)c1ccccc1)N(CCCCc1cc(Cl)c(COC2(c3cnccc3-c3ccccc3OC3CC3)CC2)cc1Cl)C[C@H](O)[C@@H](O)[C@H](O)[C@H](O)CO` [Compound I-70, 3-(benzenesulfonyl)-N-{4-[2,5-dichloro-4-({1-[4-(2-cyclopropoxyphenyl)pyridin-3-yl]cyclopropoxy}methyl)phenyl]butyl}-N-[(2S,3R,4R,5R)-2,3,4,5,6-pentahydroxyhexyl]propanamide], the EC50 was 126 to 1000 nM.
For `O=C(NCCCCc1cc(Cl)c(CNC2(c3cnccc3-c3ccccc3OC3COC3)CC2)cc1Cl)NC[C@H](O)[C@@H](O)[C@H](O)[C@H](O)CO` [Compound I-174, 1-[4-(2,5-dichloro-4-([(1-{4-[2-(oxetan-3-yloxy)phenyl]pyridin-3-yl}cyclopropyl)amino]methyl)phenyl)butyl]-3-[(2S,3R,4R,5R)-2,3,4,5,6-pentahydroxyhexyl]urea], the EC50 was 126 to 1000 nM.
`O=C(NCCCCc1cc(Cl)c(COC2(c3cnccc3-c3ccccc3OC3CC3)CC2)cc1Cl)NC[C@H](O)[C@@H](O)[C@H](O)[C@H](O)CO` [Compound I-141, 1-{4-[2,5-dichloro-4-({1-[4-(2-cyclopropoxyphenyl)pyridin-3-yl]cyclopropoxy}methyl)phenyl]butyl}-3-[(2S,3R,4R,5R)-2,3,4,5,6-pentahydroxyhexyl]urea] was tested, and the EC50 was under 100 nM.
Work on `O=C(NCCCCCS(=O)(=O)c1ccc(Cl)c(COC2(c3cnccc3-c3ccccc3OC3CC3)CC2)c1)NC[C@H](O)[C@@H](O)[C@H](O)[C@H](O)CO` [Compound I-640, 1-{5-[4-chloro-3-({1-[4-(2-cyclopropoxyphenyl)pyridin-3-yl]cyclopropoxy}methyl)benzenesulfonyl]pentyl}-3-[(2S,3R,4R,5R)-2,3,4,5,6-pentahydroxyhexyl]urea] yielded an EC50 of under 100 nM.
`FC(F)(F)c1ccc(Cl)c(COC2(c3cnccc3-c3ccccc3OC3CC3)CC2)c1` [Compound I-52, 3-(1-{[2-chloro-5-(trifluoromethyl)phenyl]methoxy}cyclopropyl)-4-(2-cyclopropoxyphenyl)pyridine] was tested, and the EC50 was under 100 nM.
With `CC(CO)Oc1ccccc1-c1ccncc1C1(NCc2cc(Cl)ccc2Cl)CC1` (stereo not drawn) [Compound I-20, 2-{2-[3-(1-{[(2,5-dichlorophenyl)methyl]amino}cyclopropyl)pyridin-4-yl]phenoxy}propan-1-ol] the EC50 was 126 to 1000 nM.
`CN(CCCSc1ccc(Cl)c(COC2(c3cnccc3-c3ccccc3OC3CC3)CC2)c1)C(=O)[C@@H](O)[C@@H](O)[C@H](O)[C@@H](O)CO` [Compound I-508, (2S,3S,4R,5S)-N-(3-{[4-chloro-3-({1-[4-(2-cyclopropoxyphenyl)pyridin-3-yl]cyclopropoxy}methyl)phenyl]sulfanyl}propyl)-2,3,4,5,6-pentahydroxy-N-methylhexanamide] gave an EC50 of under 100 nM.
`Cc1cc(COC2(c3cnccc3-c3ccccc3OC3CC3)CC2)c(Cl)cc1CCCCC(=O)NC[C@H](O)[C@@H](O)[C@H](O)[C@H](O)CO` [Compound I-145, 5-[5-chloro-4-({1-[4-(2-cyclopropoxyphenyl)pyridin-3-yl]cyclopropoxy}methyl)-2-methylphenyl]-N-[(2S,3R,4R,5R)-2,3,4,5,6-pentahydroxyhexyl]pentanamide] showed an EC50 of under 100 nM.
`O=C1CCCN1CCCN(CCCSc1ccc(Cl)c(CNC2(c3cnccc3-c3ccccc3OC3CC3)CC2)c1)C(=O)[C@@H](O)[C@@H](O)[C@H](O)[C@@H](O)CO` [Compound I-529, (2S,3S,4R,5S)-N-[3-({4-chloro-3-[({1-[4-(2-cyclopropoxyphenyl)pyridin-3-yl]cyclopropyl}amino)methyl]phenyl}sulfanyl)propyl]-2,3,4,5,6-pentahydroxy-N-[3-(2-oxopyrrolidin-1-yl)propyl]hexanamide] gave an EC50 of 126 to 1000 nM.
`O=C([C@@H](O)[C@@H](O)[C@H](O)[C@@H](O)CO)N(CCCSc1ccc(Cl)c(COC2(c3cnccc3-c3ccccc3OC3CC3)CC2)c1)CC1CCOCC1` [Compound I-522, (2S,3S,4R,5S)-N-(3-{[4-chloro-3-({1-[4-(2-cyclopropoxyphenyl)pyridin-3-yl]cyclopropoxy}methyl)phenyl]sulfanyl}propyl)-2,3,4,5,6-pentahydroxy-N-(oxan-4-ylmethyl)hexanamide] showed an EC50 of 126 to 1000 nM.
Compound `Cc1ccc(SCCCN(CCCS(C)(=O)=O)C(=O)[C@@H](O)[C@@H](O)[C@H](O)[C@@H](O)CO)cc1CNC1(c2cnccc2-c2ccccc2OC2CC2)CC1` [Compound I-544, (2S,3S,4R,5S)-N-[3-({3-[({1-[4-(2-cyclopropoxyphenyl)pyridin-3-yl]cyclopropyl}amino)methyl]-4-methylphenyl}sulfanyl)propyl]-2,3,4,5,6-pentahydroxy-N-(3-methanesulfonylpropyl) hexanamide] has an EC50 of 126 to 1000 nM.
With `Cc1cc(CNC2(c3cnccc3-c3ccccc3OC3CC3)CC2)c(Cl)cc1CCCCC(=O)N(C)C[C@H](O)[C@@H](O)[C@H](O)[C@H](O)CO` [Compound I-143, 5-{5-chloro-4-[({1-[4-(2-cyclopropoxyphenyl)pyridin-3-yl]cyclopropyl}amino)methyl]-2-methylphenyl}-N-methyl-N-[(2S,3R,4R,5R)-2,3,4,5,6-pentahydroxyhexyl]pentanamide] the EC50 was under 100 nM.
Work on `O=C(CCCCc1cc(Cl)c(COC2(c3cnccc3-c3ccccc3OC3CC3)CC2)cc1Cl)N(Cc1ccccc1)C[C@H](O)[C@@H](O)[C@H](O)[C@H](O)CO` [Compound I-126, N-benzyl-5-(2,5-dichloro-4((1-(4-(2-cyclopropoxyphenyl)pyridin-3-yl)cyclopropoxy)methyl)phenyl)-N-((2S,3R,4R,5R)-2,3,4,5,6-pentahydroxyhexyl)pentanamide] yielded an EC50 of 126 to 1000 nM.
`CN(C[C@H](O)[C@@H](O)[C@H](O)[C@H](O)CO)C(=O)CCCCc1ccc(Cl)c(COC2(c3cnccc3-c3ccccc3OC3CC3)CC2)c1` (stereo in doubt) [Compound I-232, 5-[4-chloro-3-({1-[4-(2-cyclopropoxyphenyl)pyridin-3-yl]cyclopropoxy}methyl)phenyl]-N-methyl-N-[(2S,3R,4R,5R)-2,3,4,5,6-pentahydroxyhexyl]pentanamide] was tested, and the EC50 was under 100 nM.
Compound `CN(C[C@H](O)[C@@H](O)[C@H](O)[C@H](O)CO)C(=O)CCCCc1cc(Cl)c(COC2(c3cnccc3-c3ccccc3OC3CC3)CC2)cc1Cl` [Compound I-136, 5-[2,5-dichloro-4-({1-[4-(2-cyclopropoxyphenyl)pyridin-3-yl]cyclopropoxy}methyl)phenyl]-N-methyl-N-[(2S,3R,4R,5R)-2,3,4,5,6-pentahydroxyhexyl]pentanamide] has an EC50 of under 100 nM.
In the case of `CCS(=O)(=O)CCN(CCCCCc1cc(Cl)c(COC2(c3cnccc3-c3ccccc3OC3CC3)CC2)cc1Cl)C(=O)[C@@H](O)[C@@H](O)[C@H](O)[C@@H](O)CO` (stereo in doubt) [Compound I-227, (2S,3S,4R,5S)-N-{5-[2,5-dichloro-4-({1-[4-(2-cyclopropoxyphenyl)pyridin-3-yl]cyclopropoxy}methyl)phenyl]pentyl}-N-[2-(ethanesulfonyl)ethyl]-2,3,4,5,6-pentahydroxyhexanamide], the EC50 is reported as under 100 nM.
